Measurements: ChEMBL document CHEMBL1135902, “Molecular interaction of the antagonist N-(piperidin-1-yl)-5-(4-chlorophenyl)-1- (2,4-dichlorophenyl)-4-methyl-1H-pyrazole-3-carboxamide with the CB1 cannabinoid receptor” (J Med Chem, 2002)

Target: Cannabinoid receptor 1 (Rattus norvegicus, UniProt P20272)
Assay type: cell membranes, Brain, Brain membranes
Description: Inhibition of [3H]CP-55940 binding to cannabinoid receptor 1 in rat brain membranes.

Sequence of Cannabinoid receptor 1 (P20272 whole entry): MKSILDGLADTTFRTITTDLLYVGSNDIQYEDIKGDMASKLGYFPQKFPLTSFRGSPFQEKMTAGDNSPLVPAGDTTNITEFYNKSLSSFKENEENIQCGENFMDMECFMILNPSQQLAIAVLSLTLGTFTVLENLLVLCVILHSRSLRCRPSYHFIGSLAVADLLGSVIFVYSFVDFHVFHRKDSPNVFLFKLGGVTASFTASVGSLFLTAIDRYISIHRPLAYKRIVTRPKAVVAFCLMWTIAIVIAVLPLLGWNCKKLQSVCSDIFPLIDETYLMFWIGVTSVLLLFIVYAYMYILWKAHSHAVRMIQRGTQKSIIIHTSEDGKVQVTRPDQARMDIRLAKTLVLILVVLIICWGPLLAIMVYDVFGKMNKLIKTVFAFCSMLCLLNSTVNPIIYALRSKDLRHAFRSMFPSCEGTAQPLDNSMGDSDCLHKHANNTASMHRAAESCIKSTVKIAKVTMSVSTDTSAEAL

Row | Compound | Ki
1 | CCCCCCn1nc(C(=O)NN2CCCCC2)c(C)c1-c1ccccc1 | 21 nM
2 | CCCCn1nc(C(=O)NN2CCCCC2)c(C)c1-c1ccccc1 | 187 nM
3 | CCCCCCCn1nc(C(=O)NN2CCCCC2)c(C)c1-c1ccccc1 | 47 nM
4 | Cc1c(C(=O)NN2CCCCC2)nn(C2CCCCC2)c1-c1ccccc1 | 391 nM
5 | CCCCc1ccc(-n2nc(C(=O)NN3CCCCC3)c(C)c2-c2ccc(Cl)cc2)cc1 | 256 nM
6 | CCCCCNC(=O)c1nn(-c2ccc(Cl)cc2Cl)c(-c2ccc(Cl)cc2)c1C | 3 nM
7 | Cc1c(COCC2CCCCC2)nn(-c2ccc(Cl)cc2Cl)c1-c1ccc(Cl)cc1 | 100 nM
8 | CCCCCn1nc(C(=O)NN2CCCCC2)c(C)c1-c1ccc(Br)cc1 | 63 nM
9 | O=C(NN1CCCCC1)c1nn(-c2ccc(Cl)cc2Cl)c2c([N+](=O)[O-])cccc12 | 202 nM
10 | CCCCCc1ccc(-n2nc(C(=O)NN3CCCCC3)c(C)c2-c2ccc(Cl)cc2)cc1 | 1360 nM
11 | CCCCCCCNC(=O)c1nn(-c2ccc(Cl)cc2Cl)c(-c2ccc(Cl)cc2)c1C | 3 nM
12 | CCCCCn1nc(C(=O)NN2CCCCC2)c(C)c1-c1ccccc1 | 23 nM
13 | CCCCCc1ccc(-c2c(C)c(C(=O)NN3CCCCC3)nn2-c2ccc(Cl)cc2Cl)cc1 | 1 nM
14 | CCCCCC(=O)c1nn(-c2ccc(Cl)cc2Cl)c(-c2ccc(Cl)cc2)c1C | 25 nM
15 | CC(=O)c1ccc(-c2c(C#N)c(C(=O)Nc3ccccc3)nn2-c2ccccc2Cl)cc1 | 7 nM
16 | Cc1c(COCc2ccc(F)cc2)nn(-c2ccc(Cl)cc2Cl)c1-c1ccc(Cl)cc1 | 6 nM

Further lines, results first:

Row | Ki | Compound
17 | 19 nM | Cc1c(C(=O)NN2CCOCC2)nn(-c2ccc(Cl)cc2Cl)c1-c1ccc(Br)cc1
18 | 109 nM | Cc1c(C(=O)NN2CCCCC2)nn(-c2ccc([N+](=O)[O-])cc2)c1-c1ccc(Cl)cc1
19 | 746 nM | O=C(NN1CCCCC1)c1nn(-c2ccc(Cl)cc2Cl)c2c(Cl)cccc12
20 | 232 nM | Cc1c(COCCN2CCCCC2)nn(-c2ccc(Cl)cc2Cl)c1-c1ccc(Cl)cc1
21 | 56 nM | Cc1c(C(=O)N(C)C2CCCCC2)nn(-c2ccc(Cl)cc2Cl)c1-c1ccc(Br)cc1
22 | 17.1 nM | Cc1c(C(=O)NN2CCCC2)nn(-c2ccc(Cl)cc2Cl)c1-c1ccc(Br)cc1
23 | 37 nM | CCC(C)c1ccc(-n2nc(C(=O)NN3CCCCC3)c(C)c2-c2ccc(Cl)cc2)cc1 (configuration not stated)
24 | 165 nM | Cc1c(C(=O)NCCO)nn(-c2ccc(Cl)cc2Cl)c1-c1ccc(Br)cc1
25 | 72 nM | Cc1c(C(=O)NN2CCCCC2)nn(-c2ccc(N)cc2)c1-c1ccc(Cl)cc1
26 | 15 nM | Cc1c(C(=O)NC2CCCCC2)nn(-c2ccc(Cl)cc2Cl)c1-c1ccc(Br)cc1
27 | 55 nM | Cc1c(C(=O)NN2CCCCC2)nn(-c2ccc(Cl)cc2)c1-c1ccc(Cl)cc1
